Assay [1] deals with Peritoneal macrophage. In words: Antiinflammatory activity in ICR mouse primary peritoneal macrophages assessed as inhibition of LPS-induced TNF-alpha production at 10 uM pretreated for 2 hrs followed by LPS challenge measured after 22 hrs by ELISA relative to control. It counts as functional.
The test system of assay [2] is Peritoneal macrophage. In words: Antiinflammatory activity in ICR mouse primary peritoneal macrophages assessed as inhibition of LPS-induced IL-6 production at 10 uM pretreated for 2 hrs followed by LPS challenge measured after 22 hrs by ELISA relative to control. Type of assay: functional. For orientation: ELISA stands for enzyme-linked immunosorbent assay.
The subject of assay [3] is Peritoneal macrophage. In words: Antiinflammatory activity in ICR mouse primary peritoneal macrophages assessed as inhibition of LPS-induced TNF-alpha production pretreated for 2 hrs followed by LPS challenge measured after 22 hrs by ELISA. It counts as functional, cell-based.
Assay [4] deals with Peritoneal macrophage. In words: Antiinflammatory activity in ICR mouse primary peritoneal macrophages assessed as inhibition of LPS-induced IL-6 production pretreated for 2 hrs followed by LPS challenge measured after 22 hrs hrs by ELISA. It counts as functional, cell-based.
For assay [5], the system named is Peritoneal macrophage. In words: Antiinflammatory activity in ICR mouse primary peritoneal macrophages assessed as inhibition of Pam3CK-induced TNF-alpha production at 10 uM pretreated for 2 hrs followed by Pam3CK challenge measured after 12 hrs by ELISA. It counts as functional, cell-based.
The subject of assay [6] is Mus musculus. In words: Antiinflammatory activity in LPS-induced C57BL/6 mouse assessed as mouse survival at 10 mg/kg, iv pretreated for 15 mins followed by LPS challenge measured after 7 days. Type of assay: functional, organism-based.
In assay [7] the test system is Mus musculus. In words: Antiinflammatory activity in C57BL/6 mouse assessed as reduction in LPS-induced total protein level in bronchoalveolar lavage fluid at 10 mg/kg, iv pretreated for 15 mins followed by LPS challenge measured after 6 hrs. Type of assay: functional, organism-based.
The test system of assay [8] is Mus musculus. In words: Antiinflammatory activity in C57BL/6 mouse assessed as reduction in LPS-induced total cell numbers in bronchoalveolar lavage fluid at 10 mg/kg, iv pretreated for 15 mins followed by LPS challenge measured after 6 hrs by flow cytometric analysis. It counts as functional, organism-based. For orientation: In flow cytometry, cells or beads pass a laser one at a time.

In assay [9] the test system is Mus musculus. In words: Antiinflammatory activity in C57BL/6 mouse assessed as reduction in LPS-induced wet to dry lung edema ratio at 10 mg/kg, iv pretreated for 15 mins followed by LPS challenge measured after 6 hrs. It counts as functional, organism-based.
The test system of assay [10] is Mus musculus. In words: Antiinflammatory activity in C57BL/6 mouse assessed as reduction in LPS-induced TNF-alpha mRNA level in bronchoalveolar lavage fluid at 10 mg/kg, iv pretreated for 15 mins followed by LPS challenge measured after 6 hrs by qPCR analysis. Type of assay: functional, organism-based.
Assay [11] concerns Mus musculus. In words: Antiinflammatory activity in C57BL/6 mouse assessed as reduction in LPS-induced IL-6 mRNA level in bronchoalveolar lavage fluid at 10 mg/kg, iv pretreated for 15 mins followed by LPS challenge measured after 6 hrs by qPCR analysis. It counts as functional, organism-based. A general note: Real-time PCR tracks product formation cycle by cycle.
The subject of assay [12] is Mus musculus. In words: Antiinflammatory activity in C57BL/6 mouse assessed as reduction in LPS-induced IL-1beta mRNA level in bronchoalveolar lavage fluid at 10 mg/kg, iv pretreated for 15 mins followed by LPS challenge measured after 6 hrs by qPCR analysis. It counts as functional, organism-based.
Assay [13] has as its system Mus musculus. In words: Antiinflammatory activity in C57BL/6 mouse assessed as reduction in LPS-induced inflammatory cell infiltration in lung at 10 mg/kg, iv pretreated for 15 mins followed by LPS challenge measured after 6 hrs by hematoxylin and eosin staining-based light microscopic analysis. Type of assay: functional, organism-based.
In assay [14] the test system is Mus musculus. In words: Antiinflammatory activity in C57BL/6 mouse assessed as reduction in LPS-induced interalveolar septal thickening in lung at 10 mg/kg, iv pretreated for 15 mins followed by LPS challenge measured after 6 hrs by hematoxylin and eosin staining-based light microscopic analysis. Type of assay: functional, organism-based.
The subject of assay [15] is Mus musculus. In words: Antiinflammatory activity in C57BL/6 mouse assessed as reduction in LPS-induced interstitial edema in lung at 10 mg/kg, iv pretreated for 15 mins followed by LPS challenge measured after 6 hrs by hematoxylin and eosin staining-based light microscopic analysis. It counts as functional, organism-based.
Assay [16] deals with Mus musculus. In words: Antiinflammatory activity in LPS-induced C57BL/6 mouse assessed as increase in immunoreactivity to CD68 in lung at 10 mg/kg, iv pretreated for 15 mins followed by LPS challenge measured after 6 hrs by immunohistochemical analysis. Type of assay: functional, organism-based.

The structures appear in SMILES notation. Calls of active or inactive are those of the source. The calls are words filed in the database; no cut-off is given here.

Broadly, the inhibition is the percentage by which the read-out fell short of the control. As for `COc1cc(O)c(CC=C(C)C)c(O)c1C(=O)/C=C/c1ccc(O)cc1`, the inhibition result in the assay on Peritoneal macrophage [1] and with Peritoneal macrophage [2] was “inactive” in each case.

In the case of `COc1ccc(/C=C2\CCC/C(=C\c3cccc(OC)c3OC)C2=O)c(F)c1`, the inhibition result in the assay with Peritoneal macrophage [1] and with Peritoneal macrophage [2] was “inactive” each time.

Usually IC50 stands for the concentration that gives 50% inhibition. For `COc1cccc(/C=C/C(=O)/C=C/c2ccc(O)c(Br)c2)c1OC`, the results for the IC50 with Peritoneal macrophage [3] and with Peritoneal macrophage [4] were 2.96 µM and 3.62 µM, respectively. In addition, the inhibition entry with Peritoneal macrophage [3] and with Peritoneal macrophage [4] was “Dose-dependent effect” throughout. In addition, in the assay on Peritoneal macrophage [5], the inhibition result is “inactive”. Moreover, the outcome in the assay with Mus musculus [6] was Active.

On to `COc1ccccc1/C=C/C(=O)/C=C/c1ccccc1Br`, for which the values for the inhibition at 10 µM with Peritoneal macrophage [1] and in the assay on Peritoneal macrophage [2] were 97.6% and 99.6%, respectively. Further, the IC50 in the assay on Peritoneal macrophage [3] was 4.73 µM; in the assay on Peritoneal macrophage [4], 4.18 µM. For the same compound, the inhibition entry in the assay on Peritoneal macrophage [3] and with Peritoneal macrophage [4] was “Dose-dependent effect” each time. In addition, in the assay on Peritoneal macrophage [5], the inhibition entry is “inactive”. The outcome with Mus musculus [6], in the assay on Mus musculus [7], with Mus musculus [8], in the assay on Mus musculus [9], in the assay with Mus musculus [10] and with Mus musculus [11] was Active. Also, the result in the assay with Mus musculus [12], with Mus musculus [13], with Mus musculus [14], in the assay with Mus musculus [15] and in the assay with Mus musculus [16] was Active.

In the case of `COc1cc(OC)c(/C=C/C(=O)/C=C/c2ccc(OC)c(OC)c2)c(OC)c1`, the inhibition entry in the assay on Peritoneal macrophage [1] and in the assay on Peritoneal macrophage [2] was “inactive” each time.

Consider `COc1cc(OC)c(/C=C/C(=O)/C=C/c2cccc(OC)c2OC)c(OC)c1`, for which the inhibition result in the assay with Peritoneal macrophage [1] and with Peritoneal macrophage [2] was “inactive” in each case.

Consider `COc1ccccc1/C=C/C(=O)/C=C/c1ccc(O)c(Br)c1`, for which the values for the IC50 with Peritoneal macrophage [3] and in the assay on Peritoneal macrophage [4] were 3.71 µM and 4.13 µM, respectively. Further, the inhibition result with Peritoneal macrophage [3] and in the assay on Peritoneal macrophage [4] was “Dose-dependent effect” each time. Further, the inhibition result in the assay on Peritoneal macrophage [5] was “inactive”.
